Reference: ChEMBL document CHEMBL3991601, “The target landscape of clinical kinase drugs” (Science, 2017)
Calls of active or inactive are those of the source.

What was measured:
[1] = target: T1, Glycine--tRNA ligase (Homo sapiens, UniProt P41250)
T1 sequence (P41250 whole entry): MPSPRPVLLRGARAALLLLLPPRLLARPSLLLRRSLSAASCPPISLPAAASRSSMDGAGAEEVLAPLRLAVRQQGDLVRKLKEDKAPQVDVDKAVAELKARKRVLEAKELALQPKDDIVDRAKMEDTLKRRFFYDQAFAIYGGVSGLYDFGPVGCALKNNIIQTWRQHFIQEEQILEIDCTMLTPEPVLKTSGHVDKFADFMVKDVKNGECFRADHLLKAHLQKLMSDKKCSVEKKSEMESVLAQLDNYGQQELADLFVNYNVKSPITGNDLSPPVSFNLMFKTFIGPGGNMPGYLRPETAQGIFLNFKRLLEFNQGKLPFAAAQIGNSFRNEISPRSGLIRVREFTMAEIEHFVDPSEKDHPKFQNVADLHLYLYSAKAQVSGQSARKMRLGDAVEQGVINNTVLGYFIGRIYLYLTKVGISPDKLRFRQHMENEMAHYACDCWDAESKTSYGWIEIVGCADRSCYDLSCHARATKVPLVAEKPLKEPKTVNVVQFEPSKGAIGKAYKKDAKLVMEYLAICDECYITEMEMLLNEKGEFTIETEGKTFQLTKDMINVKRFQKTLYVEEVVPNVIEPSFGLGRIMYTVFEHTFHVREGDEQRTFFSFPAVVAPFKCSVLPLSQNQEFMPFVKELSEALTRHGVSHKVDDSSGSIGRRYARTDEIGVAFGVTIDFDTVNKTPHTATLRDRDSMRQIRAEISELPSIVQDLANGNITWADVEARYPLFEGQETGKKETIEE

[2] = target: T2, Mitogen-activated protein kinase kinase kinase 2 (Homo sapiens, UniProt Q9Y2U5)
T2 sequence (Q9Y2U5 whole entry): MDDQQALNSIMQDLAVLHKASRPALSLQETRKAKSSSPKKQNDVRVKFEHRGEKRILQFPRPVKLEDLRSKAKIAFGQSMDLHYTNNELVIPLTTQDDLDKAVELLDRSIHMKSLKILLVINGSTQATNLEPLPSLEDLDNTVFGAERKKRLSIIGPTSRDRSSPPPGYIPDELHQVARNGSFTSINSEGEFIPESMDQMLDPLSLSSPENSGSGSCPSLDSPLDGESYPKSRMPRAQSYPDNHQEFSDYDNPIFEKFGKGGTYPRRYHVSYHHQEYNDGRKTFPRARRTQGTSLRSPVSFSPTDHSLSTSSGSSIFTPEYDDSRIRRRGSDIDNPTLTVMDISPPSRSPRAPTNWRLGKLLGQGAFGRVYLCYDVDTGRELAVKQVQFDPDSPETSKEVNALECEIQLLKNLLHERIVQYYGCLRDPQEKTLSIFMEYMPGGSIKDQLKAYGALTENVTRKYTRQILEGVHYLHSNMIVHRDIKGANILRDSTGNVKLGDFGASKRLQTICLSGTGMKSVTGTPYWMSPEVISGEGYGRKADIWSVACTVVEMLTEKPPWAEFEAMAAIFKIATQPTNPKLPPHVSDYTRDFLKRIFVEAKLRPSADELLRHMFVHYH

[3] = target: T3, Mitogen-activated protein kinase 15 (Homo sapiens, UniProt Q8TD08)
T3 sequence (Q8TD08 whole entry): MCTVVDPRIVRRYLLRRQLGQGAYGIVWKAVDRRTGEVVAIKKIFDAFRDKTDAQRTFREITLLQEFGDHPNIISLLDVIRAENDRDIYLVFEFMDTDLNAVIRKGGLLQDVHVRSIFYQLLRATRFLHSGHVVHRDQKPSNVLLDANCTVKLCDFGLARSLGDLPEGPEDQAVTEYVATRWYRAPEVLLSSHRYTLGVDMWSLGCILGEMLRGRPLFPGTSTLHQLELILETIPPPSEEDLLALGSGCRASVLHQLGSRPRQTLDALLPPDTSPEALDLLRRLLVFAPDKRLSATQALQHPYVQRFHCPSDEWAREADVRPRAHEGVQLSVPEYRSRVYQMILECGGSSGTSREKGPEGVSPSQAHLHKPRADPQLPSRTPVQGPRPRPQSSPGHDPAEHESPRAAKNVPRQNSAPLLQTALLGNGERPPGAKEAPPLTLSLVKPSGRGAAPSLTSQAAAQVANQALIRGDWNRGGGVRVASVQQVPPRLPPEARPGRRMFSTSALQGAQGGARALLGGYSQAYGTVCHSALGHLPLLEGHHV

[4] = target: Protein kinase C alpha type (Homo sapiens, UniProt P17252)
[5] = target: T4, ADP/ATP translocase 2 (Homo sapiens, UniProt P05141)
T4 sequence (P05141 whole entry): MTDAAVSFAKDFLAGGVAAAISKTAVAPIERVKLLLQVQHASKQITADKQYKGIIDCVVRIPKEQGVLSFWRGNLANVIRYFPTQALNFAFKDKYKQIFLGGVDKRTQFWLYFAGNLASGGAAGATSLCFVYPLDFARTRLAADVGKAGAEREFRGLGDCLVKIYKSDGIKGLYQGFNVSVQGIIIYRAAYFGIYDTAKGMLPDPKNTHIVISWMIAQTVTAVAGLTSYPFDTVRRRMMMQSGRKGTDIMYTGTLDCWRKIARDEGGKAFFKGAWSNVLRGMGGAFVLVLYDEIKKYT

[6] = target: T5, Cysteine--tRNA ligase, cytoplasmic (Homo sapiens, UniProt P49589)
T5 sequence (P49589 whole entry): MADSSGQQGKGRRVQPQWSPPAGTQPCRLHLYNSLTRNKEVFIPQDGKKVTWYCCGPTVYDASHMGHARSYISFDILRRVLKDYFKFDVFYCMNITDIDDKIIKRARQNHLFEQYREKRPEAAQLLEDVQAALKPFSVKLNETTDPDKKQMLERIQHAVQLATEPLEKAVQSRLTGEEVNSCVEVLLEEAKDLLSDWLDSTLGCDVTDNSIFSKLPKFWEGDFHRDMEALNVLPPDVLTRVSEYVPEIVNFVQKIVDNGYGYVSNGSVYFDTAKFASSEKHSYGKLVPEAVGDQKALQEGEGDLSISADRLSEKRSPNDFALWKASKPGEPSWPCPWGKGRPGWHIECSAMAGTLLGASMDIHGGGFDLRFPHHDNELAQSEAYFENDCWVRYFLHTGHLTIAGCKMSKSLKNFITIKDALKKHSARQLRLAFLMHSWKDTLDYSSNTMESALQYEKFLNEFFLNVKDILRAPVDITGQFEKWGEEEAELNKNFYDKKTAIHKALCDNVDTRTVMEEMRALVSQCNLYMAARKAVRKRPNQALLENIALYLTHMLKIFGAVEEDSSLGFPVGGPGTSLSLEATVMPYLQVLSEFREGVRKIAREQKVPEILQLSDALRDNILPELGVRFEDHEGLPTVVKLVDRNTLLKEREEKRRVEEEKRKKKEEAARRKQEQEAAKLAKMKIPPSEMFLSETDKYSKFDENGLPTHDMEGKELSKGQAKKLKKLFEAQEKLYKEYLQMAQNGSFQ
Note: in the data inactive means no Kd found up to 30 µM.

| Kd [1] | Kd [2] | Kd [4] | Kd [5] | Kd [6] | Structure (SMILES) | Kd [3] |
| --- | --- | --- | --- | --- | --- | --- |
| > 30 µM (inactive) | > 30 µM (inactive) | > 30 µM (inactive) | > 30 µM (inactive) |  | CNC(=O)c1cc(COc2nnc(Nc3ccc(Cl)cc3)c3ccoc23)ccn1 [TELATINIB] | > 30 µM (inactive) |
| > 30 µM (inactive) | > 30 µM (inactive) | > 30 µM (inactive) | > 30 µM (inactive) |  | O[C@H]1CC[C@H](Nc2ncc3nc(Nc4c(F)cc(F)cc4F)n([C@H]4CCOC4)c3n2)CC1 [TANZISERTIB] | > 30 µM (inactive) |
| > 30 µM (inactive) |  | > 30 µM (inactive) | > 30 µM (inactive) |  | COc1cc2c(N3CCN(C(=O)Nc4ccc(OC(C)C)cc4)CC3)ncnc2cc1OCCCN1CCCCC1 [TANDUTINIB] |  |
| > 30 µM (inactive) | > 30 µM (inactive) | > 30 µM (inactive) | > 30 µM (inactive) |  | Cc1cc(-c2cc(OC(=O)c3ccccc3)ccc2Cl)cc2nnc(Nc3ccc(OCCN4CCCC4)cc3)nc12 [TG100-801] | > 30 µM (inactive) |
| > 30 µM (inactive) | > 30 µM (inactive) | > 30 µM (inactive) | > 30 µM (inactive) |  | Cc1cc(C(=O)Nc2cc(Oc3ccc4nc(NC(=O)C5CC5)cn4n3)ccc2C)n(C)n1 [TAK-593] | > 30 µM (inactive) |
| > 30 µM (inactive) | > 30 µM (inactive) | > 30 µM (inactive) | > 30 µM (inactive) |  | Cn1c(=O)c(F)c(Nc2ccc(I)cc2F)c2c(=O)n(C[C@@H](O)CO)cnc21 [TAK-733] | > 30 µM (inactive) |
| > 30 µM (inactive) | > 30 µM (inactive) | > 30 µM (inactive) | > 30 µM (inactive) |  | C=CC(=O)Nc1cccc(Nc2nc(Nc3ccc(N4CCN(C(C)=O)CC4)cc3OC)ncc2C(F)(F)F)c1 [ROCILETINIB] | > 30 µM (inactive) |
| > 30 µM (inactive) | > 30 µM (inactive) |  | > 30 µM (inactive) | > 30 µM (inactive) | O=S(=O)(c1cccc2c(O)nccc12)N1CCCNCC1 [HYDROXYFASUDIL] | > 30 µM (inactive) |
| > 30 µM (inactive) |  | > 30 µM (inactive) | > 30 µM (inactive) | > 30 µM (inactive) | Cn1cnc2c(F)c(Nc3ccc(Br)cc3Cl)c(C(=O)NOCCO)cc21 [SELUMETINIB] |  |
| > 30 µM (inactive) | 4.45 µM (active) | 0.117 µM (active) | > 30 µM (inactive) |  | CC[C@@](C)(Nc1ccnc(-c2c[nH]c3ncccc23)n1)C(=O)NCC(F)(F)F [DECERNOTINIB] | > 30 µM (inactive) |
| > 30 µM (inactive) |  | > 30 µM (inactive) | > 30 µM (inactive) | > 30 µM (inactive) | CC1(C)CNc2cc(NC(=O)c3cccnc3NCc3ccncc3)ccc21 [MOTESANIB] |  |

The remaining lines, values behind:

| Structure (SMILES) | Kd [1] | Kd [2] | Kd [4] | Kd [5] | Kd [6] | Kd [3] |
| --- | --- | --- | --- | --- | --- | --- |
| Cc1c(NC(=O)OC[C@@H]2COCCN2)cn2ncnc(Nc3ccc4c(cnn4Cc4cccc(F)c4)c3)c12 [AC-480] | > 30 µM (inactive) | > 30 µM (inactive) | > 30 µM (inactive) | > 30 µM (inactive) |  | > 30 µM (inactive) |
| C[C@]1(O)C[C@@H](c2nc(-c3ccc4ccc(-c5ccccc5)nc4c3)c3c(N)nccn32)C1 [LINSITINIB] | > 30 µM (inactive) | > 30 µM (inactive) |  | > 30 µM (inactive) | > 30 µM (inactive) | > 30 µM (inactive) |
| COc1cc2c(Oc3ccc4[nH]c(C)cc4c3F)ncnc2cc1OCCCN1CCCC1 [CEDIRANIB] | > 30 µM (inactive) |  | > 30 µM (inactive) | > 30 µM (inactive) | > 30 µM (inactive) |  |
| CN1CCN(c2nc(C3=C(c4c[nH]c5ccccc45)C(=O)NC3=O)c3ccccc3n2)CC1 [SOTRASTAURIN] | > 30 µM (inactive) | > 30 µM (inactive) |  | > 30 µM (inactive) | > 30 µM (inactive) | > 30 µM (inactive) |
| COc1cccc(Nc2ncnn3ccc(CN4CC[C@@H](N)[C@H](O)C4)c23)c1 [BMS-690514] | > 30 µM (inactive) | 1.05 µM (active) | 1.56 µM (active) | > 30 µM (inactive) |  | > 30 µM (inactive) |
| CN(C)C/C=C/C(=O)Nc1cc2c(Nc3ccc(F)c(Cl)c3)ncnc2cc1O[C@H]1CCOC1 [AFATINIB] | > 30 µM (inactive) |  | > 30 µM (inactive) | > 30 µM (inactive) | > 30 µM (inactive) |  |
| CCc1nc(C(N)=O)c(Nc2ccc(N3CCC(N4CCN(C)CC4)CC3)c(OC)c2)nc1NC1CCOCC1 [GILTERITINIB] | > 30 µM (inactive) | 0.536 µM (active) |  | 0.451 µM (active) | > 30 µM (inactive) | 0.263 µM |
| CCN1CCN(Cc2ccc(Nc3ncc(F)c(-c4cc(F)c5nc(C)n(C(C)C)c5c4)n3)nc2)CC1 [ABEMACICLIB] | > 30 µM (inactive) | > 30 µM (inactive) | 0.53 µM (active) | > 30 µM (inactive) |  | > 30 µM (inactive) |
| O=c1[nH]c([C@@H]2CCCN2)nc2c1oc1ccc(Cl)cc12 | > 30 µM (inactive) | > 30 µM (inactive) | > 30 µM (inactive) | > 30 µM (inactive) |  | > 30 µM (inactive) |
| C[C@@]1(C(=O)Nc2ccc(F)nc2)CCCN1c1nc(Nc2cc(C3CC3)n[nH]2)c2cccn2n1 [BMS-754807] | > 30 µM (inactive) |  | > 30 µM (inactive) | > 30 µM (inactive) | > 30 µM (inactive) |  |
| C=CCN(/C=C1/C(=O)O[C@H](COC)[C@@]2(C)C1=C(O)C(=O)C1=C2[C@H](OC(C)=O)C[C@]2(C)C(=O)CC[C@@H]12)CC=C [SONOLISIB] | > 30 µM (inactive) | > 30 µM (inactive) | > 30 µM (inactive) | > 30 µM (inactive) |  | > 30 µM (inactive) |
